Laboratory results reported in patent US12077503B2, “Substituted cyclic amides and their use as herbicides” (FMC CORPORATION, priority 2015, dated 2024).

Key:
Type in all cases: in vivo
Kochia (Kochia scoparia) [1] = assay: Test A preemergence; conditions: Bassia scoparia, pre-emergence, 240 h, 0 to 100 scale where 0 is no effect and 100 is complete control, read-out: Kochia plant response rating
Summary of the method: (§1)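 Each rating is a visual injury score from 0 to 100 given about 10 d after treatment, judged against untreated controls kept alongside in the greenhouse. In loam soil–sand blend, seeds got a preemergence directed soil spray, while postemergence plants were 2 to 10 cm tall at spraying.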

[2] = test system: ragweed (common ragweed, Ambrosia elatior); assay: Test A preemergence; conditions: Ambrosia artemisiifolia, pre-emergence, 240 h, 0 to 100 scale where 0 is no effect and 100 is complete control, read-out: Ragweed plant response rating
Summary of the method: as §1

[3] = test system: barnyardgrass (Echinochloa crus-galli); assay: Test A preemergence; conditions: Echinochloa crus-galli, pre-emergence, 240 h, 0 to 100 scale where 0 is no effect and 100 is complete control, read-out: Barnyardgrass plant response rating
Summary of the method: as §1

[4] = test system: giant foxtail (Setaria faberii); assay: Test A preemergence; conditions: Setaria faberi, pre-emergence, 240 h, 0 to 100 scale where 0 is no effect and 100 is complete control, read-out: Foxtail, Giant plant response rating
Summary of the method: as §1

[5] = test system: pigweed (Amaranthus retroflexus); assay: Test A preemergence; conditions: Amaranthus retroflexus, pre-emergence, 240 h, 0 to 100 scale where 0 is no effect and 100 is complete control, read-out: Pigweed plant response rating
[6] = test system: ryegrass, Italian (Italian ryegrass, Lolium multiflorum); assay: Test A preemergence; conditions: Lolium multiflorum, pre-emergence, 240 h, 0 to 100 scale where 0 is no effect and 100 is complete control, read-out: Ryegrass, Italian plant response rating
Summary of the method: as §1

Kochia (Kochia scoparia) [7] = assay: Test A postemergence; conditions: Bassia scoparia, post-emergence, 240 h
Summary of the method: as §1

corn (Zea mays) = assay: Test A postemergence; conditions: Zea mays, post-emergence, 240 h
Summary of the method: as §1

[8] = test system: wheat (Triticum aestivum); assay: Test A postemergence; conditions: Triticum aestivum, post-emergence, 240 h
Summary of the method: as §1

[9] = test system: ragweed (common ragweed, Ambrosia elatior); assay: Test A postemergence; conditions: Ambrosia artemisiifolia, post-emergence, 240 h
Summary of the method: as §1

[10] = test system: blackgrass (Alopecurus myosuroides); assay: Test A postemergence; conditions: Alopecurus myosuroides, post-emergence, 240 h
Summary of the method: as §1

[11] = test system: barnyardgrass (Echinochloa crus-galli); assay: Test A postemergence; conditions: Echinochloa crus-galli, post-emergence, 240 h
Summary of the method: as §1

[12] = test system: giant foxtail (Setaria faberii); assay: Test A postemergence; conditions: Setaria faberi, post-emergence, 240 h
Summary of the method: as §1

[13] = test system: Galium (catchweed bedstraw, Galium aparine); assay: Test A postemergence; conditions: Galium, post-emergence, 240 h
Summary of the method: as §1

[14] = test system: pigweed (Amaranthus retroflexus); assay: Test A postemergence; conditions: Amaranthus retroflexus, post-emergence, 240 h
Summary of the method: as §1

[15] = test system: ryegrass, Italian (Italian ryegrass, Lolium multiflorum); assay: Test A postemergence; conditions: Lolium multiflorum, post-emergence, 240 h
Summary of the method: as §1

[16] = test system: ducksalad (Heteranthera limosa); assay: Test B flooded paddy test; conditions: Heteranthera limosa, 250 g ai/ha, Flood; 0 to 100 scale where 0 is no effect and 100 is complete control; read-out: Ducksalad plant response rating
Summary of the method: (§2)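 Response scored visually against untreated controls, 0 = no effect and 100 = complete control, 13–15 d after treatment in the greenhouse. Compounds added to paddy water held 3 cm above soil surface. Treatment given at 2-leaf stage.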

[17] = test system: sedge, umbrella (small-flower umbrella sedge, Cyperus difformis); assay: Test B flooded paddy test; conditions: Cyperus difformis, 250 g ai/ha, Flood; 0 to 100 scale where 0 is no effect and 100 is complete control; read-out: Sedge, Umbrella plant response rating
Summary of the method: as §2

[18] = test system: barnyardgrass (Echinochloa crus-galli); assay: Test B flooded paddy test; conditions: Echinochloa crus-galli, 250 g ai/ha, Flood; 0 to 100 scale where 0 is no effect and 100 is complete control; read-out: Barnyardgrass plant response rating
Summary of the method: as §2

rice (Oryra sativa) = assay: Test B flooded paddy test; conditions: Oryza sativa, 250 g ai/ha, Flood; 0 to 100 scale where 0 is no effect and 100 is complete control; read-out: Rice plant response rating
Summary of the method: as §2

[19] = 125 g ai/ha, preemergence, approx. 10 d

## CC(O)c1ccccc1NC(=O)C1C(=O)N(C)CC1c1cccc(C(F)(F)F)c1 (stereo not drawn) [Compound 1147]
Kochia (Kochia scoparia) [1]; 31 g ai/ha, Preemergence
  pest or weed control at 31 g/ha: 0%
Kochia (Kochia scoparia) [1]; [19]
  pest or weed control at 125 g/ha: 0%
[2]; 31 g ai/ha, Preemergence
  pest or weed control at 31 g/ha: 0%
[2]; [19]
  pest or weed control at 125 g/ha: 0%
[3]; 31 g ai/ha, Preemergence
  pest or weed control at 31 g/ha: 0%
[3]; [19]
  pest or weed control at 125 g/ha: 20%
[4]; 31 g ai/ha, Preemergence
  pest or weed control at 31 g/ha: 0%
[4]; [19]
  pest or weed control at 125 g/ha: 20%
[5]; 31 g ai/ha, Preemergence
  pest or weed control at 31 g/ha: 0%
[5]; [19]
  pest or weed control at 125 g/ha: 0%
[6]; 31 g ai/ha, Preemergence
  pest or weed control at 31 g/ha: 0%
[6]; [19]
  pest or weed control at 125 g/ha: 0%
Kochia (Kochia scoparia) [7]; 125 g ai/ha, postemergence, visual injury on 0 to 100 scale (0 no effect, 100 complete control), approx. 10 d, read-out: Kochia plant response rating
  pest or weed control at 125 g/ha: 0%
Kochia (Kochia scoparia) [7]; Postemergence, 31 g ai/ha, visual injury after approx. 10 d, 0 to 100 scale, 0 no effect, 100 complete control, read-out: Plant response rating, Kochia
  pest or weed control at 31 g/ha: 0%
Corn (Zea mays); 125 g ai/ha, postemergence, visual injury on 0 to 100 scale (0 no effect, 100 complete control), approx. 10 d, read-out: Corn plant response rating
  plant injury at 125 g/ha: 0%
Corn (Zea mays); Postemergence, 31 g ai/ha, visual injury after approx. 10 d, 0 to 100 scale, 0 no effect, 100 complete control
  Corn plant response rating (crop injury, 0 = no effect, 100 = complete kill) at 31 g/ha: 0%
[8]; 125 g ai/ha, postemergence, visual injury vs untreated controls after approx. 10 d, 0 = no effect, 100 = complete control, read-out: Wheat plant response rating (0 to 100 scale)
  plant injury at 125 g/ha: 0%
[8]; Postemergence, 31 g ai/ha, visual injury after approx. 10 d, 0 to 100 scale, 0 no effect, 100 complete control, read-out: Plant response rating, Wheat
  plant injury at 31 g/ha: 0%
[9]; 125 g ai/ha, postemergence, visual injury vs untreated controls after approx. 10 d, 0 = no effect, 100 = complete control, read-out: Ragweed plant response rating (0 to 100 scale)
  pest or weed control at 125 g/ha: 0%
[9]; Postemergence, 31 g ai/ha, visual injury after approx. 10 d, 0 to 100 scale, 0 no effect, 100 complete control, read-out: Plant response rating, Ragweed
  pest or weed control at 31 g/ha: 0%
[10]; 125 g ai/ha, postemergence, visual injury on 0 to 100 scale (0 no effect, 100 complete control), approx. 10 d, read-out: Blackgrass plant response rating
  pest or weed control at 125 g/ha: 0%
[10]; Postemergence, 31 g ai/ha, visual injury after approx. 10 d, 0 to 100 scale, 0 no effect, 100 complete control, read-out: Plant response rating, Blackgrass
  pest or weed control at 31 g/ha: 0%
[11]; 125 g ai/ha, postemergence, visual injury on 0 to 100 scale (0 no effect, 100 complete control), approx. 10 d, read-out: Barnyardgrass plant response rating
  pest or weed control at 125 g/ha: 0%
[11]; Postemergence, 31 g ai/ha, visual injury after approx. 10 d, 0 to 100 scale, 0 no effect, 100 complete control, read-out: Plant response rating, Barnyardgrass
  pest or weed control at 31 g/ha: 0%
[12]; 125 g ai/ha, postemergence, visual injury on 0 to 100 scale (0 no effect, 100 complete control), approx. 10 d, read-out: Foxtail, Giant plant response rating
  pest or weed control at 125 g/ha: 0%
[12]; Postemergence, 31 g ai/ha, visual injury after approx. 10 d, 0 to 100 scale, 0 no effect, 100 complete control, read-out: Plant response rating, Foxtail, Giant
  pest or weed control at 31 g/ha: 0%
[13]; 125 g ai/ha, postemergence, visual injury on 0 to 100 scale (0 no effect, 100 complete control), approx. 10 d, read-out: Galium plant response rating
  pest or weed control at 125 g/ha: 0%
[13]; Postemergence, 31 g ai/ha, visual injury after approx. 10 d, 0 to 100 scale, 0 no effect, 100 complete control, read-out: Plant response rating, Galium
  pest or weed control at 31 g/ha: 0%
[14]; 125 g ai/ha, postemergence, visual injury vs untreated controls after approx. 10 d, 0 = no effect, 100 = complete control, read-out: Pigweed plant response rating (0 to 100 scale)
  pest or weed control at 125 g/ha: 0%
[14]; Postemergence, 31 g ai/ha, visual injury after approx. 10 d, 0 to 100 scale, 0 no effect, 100 complete control, read-out: Plant response rating, Pigweed
  pest or weed control at 31 g/ha: 0%
[15]; 125 g ai/ha, postemergence, visual injury vs untreated controls after approx. 10 d, 0 = no effect, 100 = complete control, read-out: Ryegrass, Italian plant response rating (0 to 100 scale)
  pest or weed control at 125 g/ha: 0%
[15]; Postemergence, 31 g ai/ha, visual injury after approx. 10 d, 0 to 100 scale, 0 no effect, 100 complete control, read-out: Plant response rating, Ryegrass, Italian
  pest or weed control at 31 g/ha: 0%
[16]
  pest or weed control at 250 g/ha: 0%
[17]
  pest or weed control at 250 g/ha: 0%
[18]
  pest or weed control at 250 g/ha: 0%
Rice (Oryra sativa)
  pest or weed control at 250 g/ha: 15%
